Results reported in patent US10092578B2, “Active agents and their oligomers and polymers” (Polymerix Corporation, priority 2006, dated 2018).
Values after ≈ are worked out from the molar mass of the structure shown.

Experiments:
[1] = Particle size determination by light scattering; type: physicochemical; details: for Average % of particles below 10 μm / Average % of particles below 100 μm / Average % of particles below 200 μm: average of 3 samples; for Volume Mean Particle Diameter: light scattering
Source text: Light scattering techniques were employed to assess the particle size distributions of samples of the compositions of Examples 1 and 2 and Comparative Example 1.

[2] = Salicylic acid release into artificial sweat; type: physicochemical; details: 35° C.
Method: FIG. 1 illustrates salicylic acid release at 35° C. Samples of Example 1 (square), Example 2 (triangle) and Comparative Example 1 (diamond) were placed in artificial sweat or artificial sweat plus proteins and incubated at 35° C. for 3 to 5 minutes, 1, 2, 4, 6 and 24 hours, rapidly filtered (0.22 μm filter) and analyzed for salicylic acid by HPLC.
Samples of Example 1 and 2 and Comparative Example 1 were placed in artificial sweat or artificial sweat plus proteins and incubated at 35° C. for 3 to 5 minutes, 1, 2, 4, 6 and 24 hours, rapidly filtered (0.22 μm filter) and analyzed for salicylic acid by HPLC.

[3] = Hydrolytic release of salicylic acid in buffer at 32° C., HPLC; type: physicochemical; details: acetate buffer pH 5.5, 32° C.
Method: Examples 1, 3 and 4 (both A & B) and Comparative Examples 1 and 2 were evaluated for rate of release of salicylic acid. Samples were hydrolyzed at 32° C. using acetate buffer (pH 5.5) as relevant condition for typical skin pH. The materials were placed in 50 mL centrifuge tubes for elution using conventional elution protocols, shaking the tubes in a thermostatic environment. Aliquots were taken from the tubes at periodic intervals and immediately placed in a vial and analyzed by HPLC as soon as they were removed from the hydrolysis vessel.
The respective salicylic acid release rates of the Example 4A and Example 4B at pH 5.5 are compared in FIG. 5. The rates of Example 4B at pH of 5.5 and 7.29 are compared in FIG. 6.

[4] = tested on: mixed Coryne/Staph milieu; experiment: Biosys bacterial growth test, mixed Coryne/Staph; type: cell-based, Corynebacter/Staph; details: for % Red (average reduction in bacterial growth rates): 24 hours
Method: (§1) Samples of Examples 1 and 2 and Comparative Example 1 were evaluated in two different bacterial growth assays. The first test was a standard Minimum Inhibitory Concentration (MIC) assessment involving serial dilution of test compound particle suspensions in water. In this test, the samples were evaluated at 24 hours against human derived Staphylococcus epidermidis and Corynebacter sp. form organisms. The second test utilized a Biosys® system to assess the effect of the samples added as a dry powder directly to a nutrient broth containing either human derived Staph epidermidis or a mixed Coryne/Staph milieu. In the case of the Biosys test, the bacteria laced nutrient broth alone was used as the negative control.

[5] = tested on: human derived Staph epidermidis; experiment: Biosys bacterial growth test, Staph epidermidis; type: cell-based, Staphylococcus epidermidis; details: for % Red (average reduction in bacterial growth rates): 24 hours
Method: as §1

[6] = tested on: Corynebacter sp. form organisms; experiment: Minimum Inhibitory Concentration (MIC) assessment, Coryne form; type: cell-based; details: 24 hours, particle suspensions in water; read-out: MIC versus Coryne form
Method: as §1

[7] = tested on: human derived Staphylococcus epidermidis; experiment: Minimum Inhibitory Concentration (MIC) assessment, Staph epidermidis; type: cell-based; details: for antibacterial activity (in words): MIC test, summary of Table 3; for MIC: Staphylococcus epidermidis, 24 hours, particle suspensions in water, read-out: MIC versus Staph epidermidis
Method: as §1

Row | SMILES | Average % of particles below 10 μm [1] [%] | Average % of particles below 100 μm [1] [%] | Average % of particles below 200 μm [1] [%] | Volume Mean Particle Diameter [1] [μm] | salicylic acid release rate (in words) [2] | Salicylic Acid Release (Weight Percent of Maximum Release) ([2]; 0.05 hrs) | Salicylic Acid Release (Weight Percent of Maximum Release) ([2]; 1 hr) | Salicylic Acid Release (Weight Percent of Maximum Release) ([2]; 2 hrs) | Salicylic Acid Release (Weight Percent of Maximum Release) ([2]; 4 hrs) | Salicylic Acid Release (Weight Percent of Maximum Release) ([2]; 6 hrs) | Salicylic Acid Release (Weight Percent of Maximum Release) ([2]; 24 hrs) | % Red (average reduction in bacterial growth rates) ([4]; 0.25 mg/ml) [%] | % Red (average reduction in bacterial growth rates) ([4]; 0.5 mg/ml) [%] | % Red (average reduction in bacterial growth rates) ([4]; 2.5 mg/ml) [%] | % Red (average reduction in bacterial growth rates) ([4]; 5 mg/ml) [%] | % Red (average reduction in bacterial growth rates) ([4]; 50 mg/ml) [%] | % Red (average reduction in bacterial growth rates) ([5]; 0.25 mg/ml) [%] | % Red (average reduction in bacterial growth rates) ([5]; 0.5 mg/ml) [%] | % Red (average reduction in bacterial growth rates) ([5]; 2.5 mg/ml) [%] | % Red (average reduction in bacterial growth rates) ([5]; 5 mg/ml) [%] | further results
1 | O=C(COCC(=O)Oc1ccccc1C(=O)O)Oc1ccccc1C(=O)O [Example 1, Bis(2-carboxyphenyl)diglycolate] | 11.87 | 91.69 | 99.58 | 45.64 | rapid initial | 20.035 Weight Percent of Maximum Release | 45.525 Weight Percent of Maximum Release | 54.910 Weight Percent of Maximum Release | 59.795 Weight Percent of Maximum Release | 54.890 Weight Percent of Maximum Release | 64.520 Weight Percent of Maximum Release | 66 | 29 | 100 | 100 | 100 | 10 | 95 | 100 | 100 | time until hydrolysis is complete [3]: 2.5 h; antibacterial activity (in words) ([4]; Biosys, summary of Table 5): strongest; % Red (average reduction in bacterial growth rates) ([5]; 50 mg/ml): 100%; antibacterial activity (in words) ([5]; Biosys, summary of Table 4): strongest; MIC [6]: ~200 µg/mL (≈ 0.534 mM); antibacterial activity (in words) [7]: strongest; MIC [7]: 200 to 1000 µg/mL (≈ 0.534 to 2.67 mM)
2 | O=C(CCCCC(=O)Oc1ccccc1C(=O)O)Oc1ccccc1C(=O)O [Comparative Example 1, Bis(2-carboxyphenyl)adipate, reference compound] | 32.1 | 96.03 | 99.99 | 28.85 | more moderate | 1.46 Weight Percent of Maximum Release | 4.93 Weight Percent of Maximum Release | 6.03 Weight Percent of Maximum Release | 6.81 Weight Percent of Maximum Release | 10.06 Weight Percent of Maximum Release | 26.42 Weight Percent of Maximum Release | 0 | 5 | 6 | 100 | 100 | 0 | 57 | 63 | 100 | hydrolysis completion ([3]; in four days): about 90%; % Red (average reduction in bacterial growth rates) ([5]; 50 mg/ml): 100%; MIC [6]: > 1670 µg/mL; antibacterial activity (in words) [7]: little or no; MIC [7]: > 1670 µg/mL
3 | O=C(COCCOCC(=O)Oc1ccccc1C(=O)O)Oc1ccccc1C(=O)O [Example 2, Bis(2-carboxyphenyl)-3,6-dioxaoctanedioate] | 37.54 | 80.89 | 99.39 | 48.82 | rapid initial | 35.25 Weight Percent of Maximum Release | 47.44 Weight Percent of Maximum Release | 44.85 Weight Percent of Maximum Release | 46.07 Weight Percent of Maximum Release | 51.20 Weight Percent of Maximum Release | 58.23 Weight Percent of Maximum Release | 5 | 0 | 100 | 100 | 100 | 0 | 0 | 50 | 100 | Particle size distribution, Comments [1]: Bimodal size; % Red (average reduction in bacterial growth rates) ([5]; 50 mg/ml): 100%; antibacterial activity (in words) [7]: modest; MIC [7]: ~2500 µg/mL (≈ 5.98 mM)
